Assay [1] deals with HLA-A*02:01 transgenic mouse. Briefly: Test 9: in vivo adjuvant activity, cocktail vaccine b, IFNγ ELISPOT. Particulars: added to cocktail vaccine b; Peptide SEQ ID No. 1 or SEQ ID No. 4; 0.4 nmol per body, twice; FIG. 6 and 7. As for the experimental part:
(§1) Evaluation of In Vivo Adjuvant Activity in HLA-A*02:01 Transgenic Mouse
The in vivo adjuvant activity of the compounds prepared in Examples 8, 9, and 10 and the compound prepared in Reference example 12 was evaluated in the following procedure. To cocktail vaccine b comprising Compound of formula 4 prepared in Reference example 8 and Peptide SEQ ID No. 3 prepared in Reference example 3 with Montanide ISA51 VG was added the compound prepared in Example 8, 9, or 10, or the compound prepared in Reference example 12 to prepare each vaccine. The vaccine was administered to a HLA-A*02:01 transgenic mouse, and the adjuvant activity of each vaccine was evaluated by the method of testing antigen-specific CTL induction.
Specifically, Compound of formula 4 and Peptide SEQ ID No. 3 were dissolved in DMSO, and then diluted with water for injection to concentrations of Compound of formula 4 of 3 mg/mL and Peptide SEQ ID No. 3 of 2.25 mg/mL. The diluted peptide solution was mixed and emulsified with an equal volume of Montanide ISA 51 VG to prepare cocktail vaccine b. Cocktail vaccine b was injected to mice intradermally at the tail base area in an amount for administering 300 μg of Compound of formula 4 per body and 225 μg of Peptide SEQ ID No. 3 per body. Or, in the step of preparing cocktail vaccine b, the compound prepared in Example 8, 9, or 10, or the compound prepared in Reference example 12 was added to the diluted peptide solution to prepare a vaccine, and the prepared vaccine was injected to mice intradermally at the tail base area in an amount for administering 300 μg of Compound of formula 4 per body, 225 μg of Peptide SEQ ID No. 3 per body, and 0.4 nmol of the compound prepared in Example 8, 9, or 10, or the compound prepared in Reference example 12 per body. The administrations were done twice, which had one week interval. One week after the final administration, the mice were sacrificed with CO2 gas. Splenocytes were harvested from spleens removed from the mice. Like Test 4, Peptide (SEQ ID No. 1 or SEQ ID No. 4) was added to the splenocyte-containing ELISPOT plate at a final concentration of 10 μg/ml, and the plate was incubated overnight at 37° C. under an atmosphere of 5% CO2 to re-stimulate the peptide in vitro. Then, after removal of the supernatant from the wells, stained spots on the ELISPOT plate were counted.

The subject of assay [2] is HLA-A*02:01 transgenic mouse. Description: Test 16: in vivo adjuvant activity, cocktail vaccine k (liposome formulation 1), IFNγ ELISPOT. Conditions: added to cocktail vaccine k (liposome formulation 1); 0.4 nmol per body, twice; FIG. 19. As for the experimental part:
as §1
The in vivo adjuvant activity of the compound of Example 1 was evaluated in the following procedure. To a vaccine (liposome formulation 1) comprising Compound of formula 4 prepared in Reference example 8 and Peptide SEQ ID No. 3 prepared in Reference example 3 (hereinafter, referred to as “cocktail vaccine k”) was added the compound prepared in Example 1 to prepare a vaccine. The vaccine was administered to a HLA-A*02:01 transgenic mouse, and the adjuvant activity of the vaccine was evaluated by the method of testing antigen-specific CTL induction.
For example, the above liposome formulation 1 was prepared as follows. 47.1 mg of hydrogenated soybean phosphatidylcholine and 15.47 mg of cholesterol were dissolved in t-butyl alcohol, and the mixture was lyophilized. […]
Cocktail vaccine k was injected to mice intradermally at the tail base area in an amount for administering 500 μg of Compound of formula 4 per body and 375 μg of Peptide SEQ ID No. 3 per body. […] Then, after removal of the supernatant from the wells, stained spots on the ELISPOT plate were counted.

Consider `CCCCCNc1nc(N)nc(C)c1Cc1ccc(CNC)cc1OC` [Reference example 12, 5-({2-methoxy-4-[(methylamino)methyl]phenyl}methyl)-6-methyl-N^4-pentylpyrimidine-2,4-diamine, reference compound], for which the “CTL counts responsive to the peptide compared with adding no compound” value in assay [1] is given as “more”.
As for `CCCCCNc1nc(N)nc(C)c1Cc1ccc(CN(C)CCOCCOCCOCCOCCO)cc1OC` [Example 1, 1-(4-{[2-amino-4-methyl-6-(pentylamino)pyrimidin-5-yl]methyl}-3-methoxyphenyl)-2-methyl-5,8,11,14-tetraoxa-2-azahexadecan-16-ol·trifluoroacetate], the “CTL counts responsive to Peptide SEQ ID No. 1 compared with adding no compound” value in assay [2] was “more”.

The values above are taken from patent US12427192B2, “Water soluble adjuvant and composition containing same” (Sumitomo Pharma Co., Ltd., priority 2019, dated 2025).
